Series [1] is described as follows: Solubility of GLP-2/GLP-1 derivatives with respect to aqueous medium (PBS). It counts as physicochemical. As to conditions: for solubility with respect to PBS (FIG. 1): freeze-dried 5-200 nmol/tube, PBS added, ultrasonic treatment, overnight, supernatant OD 280 nm. On the procedure:
Samples were prepared by dispensing a Milli-Q aqueous solution of PAS-CPP-GLP-2 (no sugar), PAS-CPP-GLP-2 (5-sugar) or PAS-CPP-GLP-2 (11-sugar) to a microtube by an amount of 5 nmol/tube, 30 nmol/tube, 60 nmol/tube, 120 nmol/tube or 200 nmol/tube, and freeze-drying the same. The freeze-dried samples were added with […] of PBS (Dulbecco's Phosphate Buffered Saline; Sigma-Aldrich, herein after the same), subjected to ultrasonic treatment, and allowed to stand overnight. Thereafter, the concentration of the peptide was measured. Specifically, a supernatant obtained by centrifuging the sample suspension was subjected to the measurement of OD (280 nm) with a spectrometer (NanoDrop™ 2000c spectrometer; Thermo Fisher Scientific K.K.)
Administration solutions were prepared by mixing a PAS-CPP-GLP-2 derivative (no sugar) or a PAS-CPP-GLP-2 derivative (11-sugar) with PBS. […] The concentration of each GLP-2 derivative was adjusted to 0.6 nmol/4 μL.
(§1) The concentration of a PAS-CPP-GLP-2 derivative (no sugar) or a PAS-CPP-GLP-2 derivative (11-sugar) was adjusted to 3.0 nmol/4 μL.

Series [2] in a line: Migration to central nervous system, optical imaging of brain sagittal sections (ICG-labelled derivatives). It counts as in vivo, mouse. As to conditions: for fluorescence in brain section: 3.0 nmol/4 μL intranasal. On the procedure:
Administration solutions were prepared by completely dissolving a PAS-CPP-GLP-2 derivative (no sugar) labelled with ICG or a PAS-CPP-GLP-2 derivative (11-sugar) labelled with ICG in DMSO, and adjusting the final concentration of DMSO to 16% by adding PBS.
as §1
After anesthetizing mice with isoflurane using an all-in-one small animal anesthetizer, the administration solutions or 16% DMSO as a control was intranasally administered to the mice by the amount of 2 μL per nose cavity, 4 μL in total.
In order to observe the migration to the brain over time, the brain was isolated 5 minutes, 10 minutes, 20 minutes, 60 minutes and 90 minutes after the intranasal administration, respectively, and subjected to infiltration fixation with 4% paraformaldehyde (4% PFA) solution overnight. Subsequently, a sagittal section with a thickness of 2 mm at the left and the right from the center of the brain was prepared using a brain matrix (RBM-2000S, ASI). The section was placed in a dish and analyzed with an optical imaging apparatus (Clairvivo OPT plus, Shimadzu Corporation) at an excitation wavelength of 785 nm, fluorescence wavelength of 849 nm, and an exposure time: 6 seconds.

The nature of series [3]: Distribution in brain by immunostaining of frozen brain sections (Example 6). It counts as in vivo, mouse. As to conditions: 3.0 nmol/4 μL intranasal. On the procedure:
The distribution in the brain of a glycosylated GLP-2 derivative (11-sugar) after intranasally administered was evaluated by preparing frozen brain sections and subjecting the same to immunostaining. The brain sections were prepared from tissues around the hippocampus (HIP), dorsomedial nucleus of the hypothalamus (DMH), olfactory bulb (OB), and pons/principal sensory nucleus of trigeminal nerve (Pr5). The olfactory bulb includes olfactory nerves, which are assumed to be a pathway for the migration of GLP-2.
After anesthetizing 7-week-old male ddY mice with isoflurane using an all-in-one small animal anesthetizer, a 16% DMSO solution of a PAS-CPP-GLP-2 derivative (11-sugar) (3.0 nmol/4 μL) or 16% DMSO as a control was intranasally administered to the mice by the amount of 2 μL per nose cavity, 4 μL in total. The brain was isolated 5 minutes after the administration and 20 minutes after administration.
The brain isolated 5 minutes after the intranasal administration was subjected to infiltration fixation with 4% PFA at 4° C. overnight without performing perfusion fixation. The isolation of the brain 20 minutes after the intranasal administration was performed by the following process.
The mouse is fixed in a supine position under anesthesia with isoflurane, and the chest was incised. PBS and 4% PFA were perfused, in this order, from the left chamber of the heart throughout the whole body for fixing the tissue. The isolated brain was preserved in a 4% PFA solution. On the day following the isolation, the brain samples were substituted with 20% sucrose overnight (4° C.), and further with 30% sucrose overnight (4° C.). Thereafter, a frozen section with a thickness of 30 μm was prepared using a cryostat (CM3050S; Leica Microsystems).
The frozen brain section was mounted on a slide glass, and a circle was drawn around the section with a liquid blocker. A blocking buffer was added inside the circle and the section was subjected to blocking for 30 minutes at room temperature. Thereafter, the section was added with a first antibody solution including a GLP-2 polyclonal antibody, diluted 200 times with a blocking solution, and subjected to incubation for 1 hour at room temperature. After washing three times with 1×PBS, the section was added with a second antibody solution including Alexa Fluor (trademark) 568 Goat Anti-Mouse IgG H&L, diluted 500 times with a BSA/PBS solution, and subjected to incubation for 1 hour at room temperature. After washing three times with 1×PBS, the section was mounted with ProLong (trademark) Diamond Antifade Mountant. After confirming the solidification of the mountant, the section was subjected to fluorescent observation and imaging with a confocal laser microscope (TCS SP8; Leica) and a software (Leica Application Suite X Software; Leica).

A short description of series [4]: Amount of migration to brain quantified by GLP-2 ELISA. It counts as in vivo. As to conditions: in vivo, inhaled or intranasal, 6.0 nmol/mouse intranasal, brain isolated 20 minutes after administration, read-out: amount of GLP-2 derivative in brain. As for the experimental part: Mice were intranasally administered with 16% DMSO or GLP-2 derivatives (6.0 nmol/mouse). The brain was isolated 20 minutes after the administration, and homogenized with BioMasher II (Nippi, Tokyo, Japan). A sample was prepared by performing centrifugal separation by 1000×g for 15 minutes and collecting a supernatant. The amount of a GLP-2 derivative in the sample was quantified using a GLP-2 ELISA kit. Specifically, a cleaning process including filling each well of a measurement plate with a cleaning fluid (350 μL) and suctioning the cleaning fluid with a pipette was performed three times. Subsequently, a labeled antigen solution (40 μL), a sample (25 μL) and a specific antibody solution (50 μL) were added in this order to the well and mixed. The measurement plate was tightly sealed and allowed to stand for 18 hours at 4° C. The cleaning process was performed three times, and a SA-HRP solution (100 μL) was added and allowed to permeate for 1.5 hours at room temperature (60 rpm). […] Finally, an enzyme reaction stop solution (100 μL) was added and an absorbance at 490 nm was measured with ARVO (PerkinElmer Japan Co., Ltd., Kanagawa, Japan) to calculate the concentration of a GLP-2 derivative.

Where no end group is shown, it is not given here. The star is where a group is joined. X1 = CC(=O)N[C@@H]1[C@@H](O)[C@H](O[C@@H]2O[C@H](CO)[C@@H](O[C@@H]3O[C@H](CO[C@H]4O[C@H](CO)[C@@H](O)[C@H](O)[C@@H]4O[C@@H]4O[C@H](CO)[C@@H](O[C@@H]5O[C@H](CO[C@]6(C(=O)O)C[C@H](O)[C@@H](NC(C)=O)[C@H]([C@H](O)[C@H](O)CO)O6)[C@H](O)[C@H](O)[C@H]5O)[C@H](O)[C@H]4NC(C)=O)[C@@H](O)[C@H](O[C@H]4O[C@H](CO)[C@@H](O)[C@H](O)[C@@H]4O[C@@H]4O[C@H](CO)[C@@H](O[C@@H]5O[C@H](CO[C@]6(C(=O)O)C[C@H](O)[C@@H](NC(C)=O)[C@H]([C@H](O)[C@H](O)CO)O6)[C@H](O)[C@H](O)[C@H]5O)[C@H](O)[C@H]4NC(C)=O)[C@@H]3O)[C@H](O)[C@H]2NC(C)=O)[C@@H](CO)O[C@H]1NC(=O)C*

With “FFLIPKGRRRRRRRRGGHADGSFSDEMNTILDNLAARDFINWLIQTKITDC(X1)-OH [PAS-CPP-GLP-2 (11-sugar)]”, in series [1] (PBS), the “solubility in PBS” value was “completely soluble in PBS”. Further, the entries for the “solubility with respect to PBS (FIG. 1)” value in series [1] (listed as GLP-2 derivatives (11-sugar)) and in series [1] (listed as glycosylated GLP-2 derivative (11-sugar)) were “linearly improved” and “improved solubility”, respectively. Moreover, the “state of derivative in PBS administration solution” value in series [1] (mixed with PBS, 0.6 nmol/4 μL) is “completely dissolved”. Moreover, the “fluorescence in brain section” value in series [2] (5 minutes after administration) was “fluorescence was observed”; in series [2] (10 minutes after administration), “fluorescence was observed intensively”; in series [2] (20 minutes after administration), “fluorescence was observed”; in series [2] (60 minutes after administration), “a relatively strong degree of fluorescence was observed”; in series [2] (90 minutes after administration), “fluorescence was not observed”. Moreover, the “retention in brain compared with PAS-CPP-GLP-2 derivative (no sugar)” value in series [2] (intranasal, 5-90 minutes) is on record as “remains in the brain for a longer time period”. Besides, the “fluorescence at region around Pr5” value in series [3] (5 minutes) was “fluorescence was observed intensely”. The “fluorescence at the other regions (HIP, DMH, OB)” value in series [3] (5 minutes) was “very little fluorescence was observed”. Further, the “fluorescence at DMH” value in series [3] (20 minutes) is given as “observed clearly”. Further, the “fluorescence at HIP” value in series [3] (20 minutes) was “fluorescence was observed”. Also, in series [3] (20 minutes), the “fluorescence at Pr5” value is recorded as “florescence was observed”. The “fluorescence intensity at OB” value in series [3] (20 minutes) is “weak”. For the same substance, the tissue level at time molar at 20 min in series [4] is 0.0106 ± 0.000998 nmol/g.
